The results in this text go back to patent US11591351B2, “Benzyl compound” (priority 2015, dated 2023).

The conditions of the data set: 25° C.; for solubility enhanced versus unprotected H-Gly-Gly-Gly-OH: CPME, relative to H-Gly-Gly-Gly-OH.

The structures appear in SMILES notation. In brackets after ≈: the same amount, converted by molar mass.

For `CC(C)[Si](OCCCCCCCCCCCOc1ccc(COC(=O)CNC(=O)CNC(=O)CN)c(OCCCCCCCCCCCO[Si](C(C)C)(C(C)C)C(C)C)c1)(C(C)C)C(C)C` [H-Gly-Gly-Gly-O-TIPS2], the “solubility in cyclopentyl methyl ether (CPME)” value came out at 181 mM (≈ 175 mg/mL) and the “solubility enhanced versus unprotected H-Gly-Gly-Gly-OH” value was “about 5,000 fold”.

Turning to `CC(C)[Si](OCC(CO[Si](C(C)C)(C(C)C)C(C)C)(CO[Si](C(C)C)(C(C)C)C(C)C)NC(=O)CCCCCCCCCCOc1ccc(COC(=O)CNC(=O)CNC(=O)CN)c(OCCCCCCCCCCC(=O)NC(CO[Si](C(C)C)(C(C)C)C(C)C)(CO[Si](C(C)C)(C(C)C)C(C)C)CO[Si](C(C)C)(C(C)C)C(C)C)c1)(C(C)C)C(C)C` [H-Gly-Gly-Gly-O-TIPS6], the “solubility in cyclopentyl methyl ether (CPME)” value came out at 286 mM (≈ 522 mg/mL) and the “solubility enhanced versus unprotected H-Gly-Gly-Gly-OH” value is listed as “about 9,000 fold”.
